ChEMBL document CHEMBL3853342, “Design, synthesis and biological evaluation of novel benzo-α-pyrone containing piperazine derivatives as potential BRAFV600E inhibitors” (Bioorg Med Chem Lett, 2016)

Legend:
[1] = Cytotoxicity against human 293T cells assessed as cell growth inhibition after 24 hrs by MTT assay; format: toxicity, cell-based, HEK-293T
[2] = Antiproliferative activity against human A375 cells assessed as cell growth inhibition after 24 hrs by MTT assay; format: functional, cell-based; details: A-375, 24 h
[3] = Antiproliferative activity against human WM1361 cells assessed as cell growth inhibition after 24 hrs by MTT assay; format: functional, cell-based; details: WM1361, 24 h
[4] = Antiproliferative activity against human WM266.4 cells harboring BRAF V600E mutant assessed as cell growth inhibition after 24 hrs by MTT assay; format: functional, cell-based; details: WM 266-4, 24 h
[5] = target: Serine/threonine-protein kinase B-raf (Homo sapiens, UniProt P15056, V600E); assay: Inhibition of human recombinant GST-tagged BRAF catalytic domain (416 to 766 residues) V600E mutant expressed in baculovirus expression system preincubated for 1 hr followed by human full length recombinant N-terminal His-tagged MEK1 substrate addition measured after 25 mins by gel electrophoresis method
Chain of Serine/threonine-protein kinase B-raf (P15056 2-766 V600E limits assumed): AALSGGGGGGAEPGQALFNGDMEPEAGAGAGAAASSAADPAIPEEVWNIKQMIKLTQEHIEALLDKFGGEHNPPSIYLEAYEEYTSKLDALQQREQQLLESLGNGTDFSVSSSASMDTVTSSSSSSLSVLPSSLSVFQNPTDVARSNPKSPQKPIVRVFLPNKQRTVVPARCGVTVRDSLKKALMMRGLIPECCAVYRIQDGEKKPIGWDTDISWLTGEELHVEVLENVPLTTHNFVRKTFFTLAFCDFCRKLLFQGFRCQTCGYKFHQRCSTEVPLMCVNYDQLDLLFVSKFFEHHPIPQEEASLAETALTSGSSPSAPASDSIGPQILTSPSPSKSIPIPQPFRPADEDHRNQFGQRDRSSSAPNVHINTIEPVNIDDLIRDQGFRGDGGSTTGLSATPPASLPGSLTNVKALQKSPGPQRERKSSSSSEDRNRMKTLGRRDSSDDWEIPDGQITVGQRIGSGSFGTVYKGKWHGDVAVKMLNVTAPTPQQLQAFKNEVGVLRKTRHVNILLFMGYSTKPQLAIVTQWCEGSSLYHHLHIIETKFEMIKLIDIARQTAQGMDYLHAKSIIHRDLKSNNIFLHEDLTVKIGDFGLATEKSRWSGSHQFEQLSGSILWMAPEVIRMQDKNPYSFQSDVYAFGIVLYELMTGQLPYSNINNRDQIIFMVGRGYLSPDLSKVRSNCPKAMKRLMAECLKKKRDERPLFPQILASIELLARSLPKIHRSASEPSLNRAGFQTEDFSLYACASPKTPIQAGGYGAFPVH

With `CCCS(=O)(=O)Nc1ccc(F)c(C(=O)c2c[nH]c3ncc(-c4ccc(Cl)cc4)cc23)c1F` [VEMURAFENIB] the CC50 at 24 h [1] was greater than 50 µM, the IC50 [2] was 0.21 µM and the IC50 [3] was 1.86 µM. For the same compound, the IC50 [4] was 0.07 µM.

`O=c1oc2ccccc2c(N2CCN(c3ccccc3)CC2)c1CO` gave a CC50 at 24 h [1] greater than 50 µM, an IC50 [2] of 17.2 µM and an IC50 [3] greater than 50 µM. It also gave an IC50 [5] of 8.93 µM and an IC50 [4] of 16.6 µM.

Work on `COc1ccc(N2CCN(c3c(CO)c(=O)oc4ccccc34)CC2)cc1` yielded a CC50 at 24 h [1] greater than 50 µM, an IC50 [2] of 7.23 µM and an IC50 [3] of 40.4 µM. The IC50 [5] was 1.84 µM and the IC50 [4] was 5.61 µM.

For `O=c1oc2ccccc2c(N2CCN(c3cccc(Cl)c3)CC2)c1CO`, the CC50 at 24 h [1] was greater than 50 µM, the IC50 [2] was 40.5 µM and the IC50 [3] was greater than 50 µM. For the same compound, the IC50 [5] was 33.5 µM and the IC50 [4] was 46.3 µM.

`O=c1oc2ccccc2c(N2CCN(c3cccc(Cl)c3Cl)CC2)c1CO` showed a CC50 at 24 h [1] greater than 50 µM, an IC50 [2] of 8.45 µM and an IC50 [3] of 45.9 µM. For the same compound, the IC50 [5] was 3.27 µM and the IC50 [4] was 6.56 µM.

Work on `O=c1oc2ccccc2c(N2CCN(c3ccc(F)cc3)CC2)c1CO` yielded a CC50 at 24 h [1] greater than 50 µM, an IC50 [2] of 24.7 µM and an IC50 [3] greater than 50 µM. For the same compound, the IC50 [5] was 17.8 µM and the IC50 [4] was 23.4 µM.

Work on `COc1cccc(N2CCN(c3c(CO)c(=O)oc4ccccc34)CC2)c1` yielded a CC50 at 24 h [1] greater than 50 µM, an IC50 [2] of 6.51 µM and an IC50 [3] of 38.1 µM. The IC50 [5] was 1.76 µM and the IC50 [4] was 5.33 µM.

`O=c1oc2ccccc2c(N2CCN(c3ccccc3F)CC2)c1CO` showed a CC50 at 24 h [1] greater than 50 µM, an IC50 [2] of 32.1 µM and an IC50 [3] greater than 50 µM. It also gave an IC50 [5] of 22 µM and an IC50 [4] of 37.6 µM.
